The text below walks through data of article PMC5343874, “High Specific Selectivity and Membrane-Active Mechanism of Synthetic Cationic Hybrid Antimicrobial Peptides Based on the Peptide FV7” (International Journal of Molecular Sciences, 2017).

No end group written: not given here.

The subject of one data set is P. aeruginosa ATCC 27853. The data set is classed as cell-based, Pseudomonas aeruginosa. As for the experimental part:
(§1) Minimum inhibitory concentration (MIC) was determined using the modified standard microtiter dilution method as described previously. The bacteria were incubated overnight at 37 °C, […] at 220 rpm and transferred to new nutrient broth (MHB) until the logarithmic phase of growth. The bacteria were then diluted into 10^5 colony forming units (10^5 CFU/mL) in MHB. The peptides were dissolved and diluted in 0.01% acetic acid and 0.2% bovine serum albumin (BSA). Briefly, serial diluted (0.5–128 µM) peptides were added to sterile 96-well plates in a 50-μL volume of bacteria in MHB mixed with 50 µL. […] The results are expressed as an average of the MICs at least three times.
(§2) E. coli ATCC 25,922, S. typhimurium ATCC 7731, S. typhimurium ATCC 14028, P. aeruginosa ATCC 27853, B. subtilis CMCC 63501, S. aureus ATCC 29213, S. epidermidis ATCC 12228 and E. faecalis ATCC 29212 were obtained from the College of Veterinary Medicine, Northeast Agricultural University (Harbin, China). E. coli UB1005 was kindly provided by Qingsheng Qi (State Key Laboratory of Microbial Technology, Shandong University, Jinan, China). P. Aeruginosa PAO1 was kindly provided by Wengong Yu (State Key Laboratory of School of Medicine and Pharmacy, Ocean University of China, Qingdao, China).

In a further data set the test system is P. aeruginosa PAO1. The data set is classed as cell-based, Pseudomonas aeruginosa. On the procedure:
as §1, §2

The test system of a further data set is B. subtilis CMCC 63501. The data set is classed as cell-based, Bacillus subtilis. As for the experimental part:
as §1, §2

Data set [1] deals with human red blood cells (hRBC). Briefly: Hemolytic activity. The data set is classed as cell-based. As to conditions: 37 °C; for concentration causing 5% hemolysis (minimal hemolytic concentration, MHC): fresh human erythrocytes in PBS pH 7.4, 1 h, absorbance 570 nm, maximal concentration 128 µM, averages of three independent experiments. On the procedure:
The hemolytic activity of the peptides was evaluated by measuring the amount of released hemoglobin by the lysis of erythrocytes. The measurement was as previously described. Human red blood cells (hRBC) were obtained from healthy donors by the ethics committee of the Northeast Agricultural University Hospital. The fresh blood cells were washed 2–3 times in PBS (pH 7.4) and centrifuged at 1000× g for 5 min at 4 °C, then resuspended in PBS. Briefly, 50 μL of hRBC solution was incubated with 50 μL of different concentrations of each peptide dissolved in PBS in a 96-well microtiter plate. After incubation for 1 h at 37 °C, the mixtures were centrifuged at 1000× g for 5 min at 4 °C and then the supernatant was transferred to another 96-well microtiter plate. The release of hemoglobin was monitored by measurement of the absorbance at 570 nm using a multimode microplate reader (SpectraMax M5, Molecular Devices, San Francisco, CA, USA). The concentration causing 5% hemolysis was defined as the minimal hemolytic concentration (MHC). The control samples for 0% and 100% hemolysis consisted of hRBC in PBS (Ablank) only and in 0.1% Triton X-100 (Atriton), respectively. The percent hemolysis was calculated according to the following equation: % Hemolysis = [(Asample − Ablank)/(Atriton − Ablank)] × 100

The subject of a further data set is S. epidermidis ATCC12228. The data set is classed as cell-based, Staphylococcus epidermidis. As for the experimental part:
as §1, §2

In data set [2] the test system is S. typhimurium ATCC 14028. The data set is classed as cell-based, Salmonella typhimurium. As for the experimental part:
as §1, §2

Another data set concerns S. typhimurium ATCC 7731. The data set is classed as cell-based, Salmonella typhimurium. On the procedure: as §1, §2
The next data set relates to E. coli UB 1005. The data set is classed as cell-based, Escherichia coli. On the procedure: as §1, §2
Data set [3] relates to E. coli ATCC 25922. The data set is classed as cell-based, Escherichia coli. As for the experimental part:
as §1, §2

Data set [4] relates to S. aureus ATCC 29213. The data set is classed as cell-based, Staphylococcus aureus. As for the experimental part: as §1, §2
In another data set the test system is S. faecalis ATCC 29212. The data set is classed as cell-based. On the procedure:
as §1, §2

Data set [5] has as its system S. aureus ATCC 29213. Briefly: Salt and heat sensitivity (MIC). The data set is classed as cell-based, Staphylococcus aureus. Details: key to MIC, FeCl3 / MIC, Mix / MIC, Control / MIC, NaCl / MIC, KCl / MIC, NH4Cl / MIC, MgCl2 / MIC, ZnCl2 / MIC, CaCl2: MIC in µM (peptide serial dilutions 0.5–128 µM); MIC, Heat (100 °C): unit not given beside the values. On the procedure: as §1
(§3) The incubation to test for thermal stability occurred at 100 °C for 1 h. After these treatments, the procedures were the same as described above for the MIC assay.

Data set [6] has as its system E. coli ATCC 25922. Briefly: Salt and heat sensitivity (MIC). The data set is classed as cell-based, Escherichia coli. Also noted: key to MIC, Control / MIC, NaCl / MIC, KCl / MIC, NH4Cl / MIC, MgCl2 / MIC, ZnCl2 / MIC, FeCl3 / MIC, CaCl2 / MIC, Mix: MIC in µM (peptide serial dilutions 0.5–128 µM); MIC, Heat (100 °C): unit not given beside the values. On the procedure:
as §1, §3

For data set [7], the system named is Gram-negative and Gram-positive bacteria. The data set can be described thus: MIC across the bacterial panel. The data set is classed as cell-based. As for the experimental part:
as §1, §2

Where [8] appears, read: mixture medium with all salts in physiological concentrations.
Where [9] appears, read: peptide incubated at 100 °C for 1 h.

The term MIC denotes the lowest concentration found to suppress growth. As for FRIRVRVAKKFGKAFVGEIM-NH2 [FV-MA], the minimal inhibitory concentration (MIC) in the data set on P. aeruginosa ATCC 27853 was 8 µM; against P. aeruginosa PAO1, 2 µM; against B. subtilis CMCC 63501, 4 µM; in the data set with S. epidermidis ATCC12228, 8 µM; in [2], 4 µM; against S. typhimurium ATCC 7731, 4 µM. The minimum inhibitory concentration (MIC) was found to be 8 µM in the data set on E. coli UB 1005, 8 µM against E. coli ATCC 25922 [3], 8 µM against S. aureus ATCC 29213 [4] and 16 µM in the data set on S. faecalis ATCC 29212. Further, the “hemolytic activity (in words)” value in data set [1] (human erythrocytes, 1 h, up to 128 µM) is given as “higher hemolytic activity at each concentration when compared to FV7”.

For the substance FRIRVRVFKRIVQRIKDFLR-NH2 [FV-LL], the MIC with P. aeruginosa ATCC 27853 worked out at 4 µM; against P. aeruginosa PAO1, 2 µM; against B. subtilis CMCC 63501, 4 µM; in the data set with S. epidermidis ATCC12228, 1 µM; in data set [2], 2 µM; against S. typhimurium ATCC 7731, 2 µM. Besides, the minimal inhibitory concentration (MIC) in the data set with E. coli UB 1005 stood at 4 µM; with E. coli ATCC 25922 [3] it was 1 µM; in the data set on S. aureus ATCC 29213 [4], 2 µM; against S. faecalis ATCC 29212, 4 µM. In [1], the “concentration causing 5% hemolysis (minimal hemolytic concentration, MHC)” value is recorded as over 128 µM.

Take FRIRVRVKWKLFKKI-NH2 [FV-CE]: the MIC came out at 2 µM in the data set on P. aeruginosa ATCC 27853; 2 µM in the data set with P. aeruginosa PAO1; 1 µM in the data set with B. subtilis CMCC 63501; 0.5 µM in the data set on S. epidermidis ATCC12228; 4 µM in data set [2]; 4 µM in the data set on S. typhimurium ATCC 7731. In addition, the minimum inhibitory concentration (MIC) in the data set with E. coli UB 1005 came out at 2 µM; in the data set on E. coli ATCC 25922 [3], 2 µM; with S. aureus ATCC 29213 [4], 8 µM; in the data set with S. faecalis ATCC 29212, 1 µM. In data set [1], the “concentration causing 5% hemolysis (minimal hemolytic concentration, MHC)” value was over 128 µM. The “MIC, FeCl3” value with S. aureus ATCC 29213 [5] (4 mM FeCl3) and in the data set on E. coli ATCC 25922 [6] (4 mM FeCl3) was 4 in each case. Besides, the “MIC, Mix” value in the data set on S. aureus ATCC 29213 [5] (setting [8]) is on record as 4; with E. coli ATCC 25922 [6] (setting [8]), 2. Also, the “MIC, Heat (100 °C)” value with S. aureus ATCC 29213 [5] (setting [9]) was 4; in the data set with E. coli ATCC 25922 [6] (setting [9]) it was 2. In addition, the “MIC, MgCl2” value in the data set with E. coli ATCC 25922 [6] (1 mM MgCl2) worked out at 2. Further, in the data set with E. coli ATCC 25922 [6] (2.5 mM CaCl2), the “MIC, CaCl2” value came to 2. In addition, the “MIC, KCl” value with E. coli ATCC 25922 [6] (4.5 mM KCl) turned out to be 2. The “MIC, NH4Cl” value in the data set with E. coli ATCC 25922 [6] (6 mM NH4Cl) was 2. For the same substance, the “MIC, ZnCl2” value in the data set on E. coli ATCC 25922 [6] (8 mM ZnCl2) amounted to 2. In the data set on E. coli ATCC 25922 [6] (150 mM NaCl), the “MIC, NaCl” value is 2. Also, the “MIC, Control” value in the data set with E. coli ATCC 25922 [6] (absence of physiological salts) stood at 2.

On to KWKLFKKI-NH2 [CE], for which the minimum inhibitory concentration (MIC) (with P. aeruginosa ATCC 27853; with P. aeruginosa PAO1; in the data set on B. subtilis CMCC 63501; in the data set on S. epidermidis ATCC12228; in data set [2]; in the data set on S. typhimurium ATCC 7731) was over 64 µM throughout. In addition, the MIC against E. coli UB 1005 was over 64 µM; in the data set on E. coli ATCC 25922 [3], 64 µM; with S. aureus ATCC 29213 [4] it was over 64 µM; against S. faecalis ATCC 29212 it was over 64 µM. The minimum inhibitory concentration result in data set [7] was “greater than 64 μM”.
